The source of these data is patent US20240165264A1, “T CELL ACTIVATION” (The University of Birmingham, priority 2022, published 2024).

The subject of assay [1] is Nr4a3-FT CD4+ T cells. In words: Force induced TCR downregulation (TCRlo) by flow cytometry. It is filed as cell-based, mouse. To be noted: Latrunculin A 0.25 and 1 μM; cells with 250 nm particles and force. On the procedure: (§1) Splenic tissue was sourced from Nr4a3—fluorescent timer (Nr4a3-FT) reporter mice or from Tg4 transgenic mice, kindly provided by the laboratories of Dr David Bending (University of Birmingham) or Professor David Wraith (University of Birmingham) respectively. CD4+ T cells were purified by negative selection as per the manufacturer's instructions (Invitrogen, magnisort mouse CD4+ enrichment kit, 8804-6821-74) and CD4+ T cell purity was ≥95% in all experiments. Isolated CD4+ T cells were treated with functionalized MNPs for 30 minutes on ice, to final concentrations of 5×10^5 cells and 50 μg/ml MNPs respectively. Cells were then washed three times in PBS by 5 minutes of centrifugation at 300 g, before resuspension at 1×10^6/ml and use in force application experiments.
(§2) Cells treated with MNPs were subjected to external magnetic force through use of the Magnetic Ion Channel Activation (MICA) platform for force application as previously described (Henstock et al., 2018; Hughes et al., 2008). […] In all experiments shown, oscillations were set at 1 Hz and the plate was positioned 3 mm away from the particles in the on position. Force was applied for time frames shown, before assessment of biological T cell activity as described herein.
Where indicated, cells were treated with Latrunculin A (Tocris, C973) to final concentrations of 0.25 and 1 μM. […]

Assay [2] has as its system CD4+ T cells from the Nr4a3-FT mouse. Description: Flow cytometry analysis of T cell activation markers after magnetic force application to MNP-bound cells. It is filed as cell-based. The following applies: blockade of actin cytoskeletal dynamics. On the procedure:
as §1, §2
Following force application for time frames indicated, cells were maintained in a 37° C. […]

For `C/C1=C/C(=O)O[C@@H]2C[C@@H](CC[C@H](C)/C=C\C=C\CC1)O[C@@](O)([C@@H]1CSC(=O)N1)C2` [Latrunculin A], in assay [1], the “effect on force induced TCR downregulation” value was “prevents force induced TCR downregulation”; the “effect on population of cells that are TCRlo and Nr4a3 positive” value was “prevents the establishment of a population of cells that are TCRlo and Nr4a3 positive”. For the same compound, the “effect on force induced T cell activation” value in assay [2] is “prevents TCR downregulation and T cell activation”.
